From patent US6472348B1, “Pyridone derivatives and herbicides” (Kumiai Chemical Industry Co., Ltd., priority 1996, dated 2002)

How the values were obtained:
Type in all cases: in vivo
barnyardgrass (Ec) [1] = test: Test Example 1: herbicidal effects by paddy field soil treatment; conditions: 100 g of the active ingredient per 10 ares, 21st day after the application, index 0-5 of Table 47;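 note: grade of growth control; 5 = at least 90%; 4 = 70 to 90%; 3 = 50 to 70%; 2 = 30 to 50%; 1 = 10 to 30%; 0 = under 10%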
In short: (§1)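 Herbicidal effect was scored against a graded standard 21 days after treatment. Seeds were sown in puddled, leveled paddy soil flooded to 3 cm depth, and the active ingredient was applied at 100 g per 10 ares before greenhouse culture.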

bulrush (Sc) = test: as above; conditions: 100 g of the active ingredient per 10 ares, 21st day after the application, index 0-5 of Table 47;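 note: grade of growth control; 5 = at least 90%; 4 = 70 to 90%; 3 = 50 to 70%; 2 = 30 to 50%; 1 = 10 to 30%; 0 = under 10%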
In short: as §1

monochoria (Mo) = test: as above; conditions: 100 g of the active ingredient per 10 ares, 21st day after the application, index 0-5 of Table 47;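 note: grade of growth control; 5 = at least 90%; 4 = 70 to 90%; 3 = 50 to 70%; 2 = 30 to 50%; 1 = 10 to 30%; 0 = under 10%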
In short: as §1

Digitaria ciliaris (Di) = test: Test Example 2: herbicidal effects by upland field soil treatment; conditions: 100 g of the active ingredient per 10 ares;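 note: grade of growth control; 5 = at least 90%; 4 = 70 to 90%; 3 = 50 to 70%; 2 = 30 to 50%; 1 = 10 to 30%; 0 = under 10%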
Description: (§2) (Test on Herbicidal Effects by Upland Field Soil Treatment)

barnyardgrass (Ec) [2] = test: as above; conditions: 100 g of the active ingredient per 10 ares
Description: as §2

[3] = test system: common lambsquarters (Ch); test: as above; conditions: 100 g of the active ingredient per 10 ares
Description: as §2

pale smartweed (Po) [4] = test: as above; conditions: 100 g of the active ingredient per 10 ares
Description: as §2

rice flatsedge (Ci) [5] = test: as above; conditions: 100 g of the active ingredient per 10 ares
Description: as §2

slender amaranth (Am) [6] = test: as above; conditions: 100 g of the active ingredient per 10 ares
Description: as §2

Diaitaria ciliaris (Di) = test: Test Example 3: herbicidal effects by upland field foliage treatment; set-up: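 grade of growth control; 5 = at least 90%; 4 = 70 to 90%; 3 = 50 to 70%; 2 = 30 to 50%; 1 = 10 to 30%; 0 = under 10%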
In short: (§3)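 Using plants cultured for 2 weeks in a greenhouse from seed sown in soil-covered sand (pots 120 cm^2), the compounds were applied to foliage, and weed control was graded by standard criteria 14 days thereafter.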

barnyardgrass (Ec) [7] = test: as above; set-up: scale not given here
In short: as §3

[8] = test system: common lambsquarters (Ch); test: as above; set-up: scale not given here
In short: as §3

pale smartweed (Po) [9] = test: as above; set-up: scale not given here
In short: as §3

rice flatsedge (Ci) [10] = test: as above; set-up: scale not given here
In short: as §3

slender amaranth (Am) [11] = test: as above; set-up: scale not given here
In short: as §3

cotton (Go) = test: Test Example 4: crop plant selectivity by upland field soil treatment (cotton), phytotoxicity; set-up: scale not given here; conditions: evaluated 21st day after application
Method: (§4) (Test on Crop Plant Selectivity by Upland Field Soil Treatment)
(§5) In a plastic pot (surface area: 600 cm^2) filled with sand, cotton (Go), Diaitaria ciliaris (Di), green foxtail (Se), pale smartweed (Po), slender amaranth (Am), common lambsquarters (Ch) and China jute (Ab) were sown and covered with soil. […] The plants were then cultured in a green house, and the evaluation of the herbicidal effects and phytotoxicity was conducted on the 21st day after the application in accordance with the standards as identified in Table 47. Symbol—represents “not tested”.

China jute (Ab) [12] = test: Test Example 4: crop plant selectivity by upland field soil treatment (cotton), herbicidal effects; set-up: scale not given here; conditions: evaluated 21st day after application
Method: as §4, §5

[13] = test system: common lambsquarters (Ch); test: as above; set-up: scale not given here; conditions: evaluated 21st day after application
Method: as §4, §5

green foxtail (Se) [14] = test: as above; set-up: scale not given here; conditions: evaluated 21st day after application
Method: as §4, §5

pale smartweed (Po) [15] = test: as above; set-up: scale not given here; conditions: evaluated 21st day after application
Method: as §4, §5

slender amaranth (Am) [16] = test: as above; set-up: scale not given here; conditions: evaluated 21st day after application
Method: as §4, §5

wheat (Tr) = test: Test Example 5: crop plant selectivity by upland field soil treatment (wheat), phytotoxicity; set-up: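 grade of crop injury; 5 = at least 90%; 4 = 70 to 90%; 3 = 50 to 70%; 2 = 30 to 50%; 1 = 10 to 30%; 0 = under 10%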; conditions: 21st day after application
Method: as §4
(§6) In a plastic pot (surface area: 600 cm^2) filled with sand, wheat (Tr), Diaitaria ciliaris (Di), green foxtail (Se), pale smartweed (Po), slender amaranth (Am), common lambsquarters (Ch) and China jute (Ab) were sown and covered with soil. […] The plants were then cultured in a green house, and the evaluation of the herbicidal effects and phytotoxicity was conducted on the 21st day after the application in accordance with the standards as identified in Table 47. Symbol—represents “not tested”.

China jute (Ab) [17] = test: Test Example 5: crop plant selectivity by upland field soil treatment (wheat), herbicidal effects; set-up: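 grade of growth control; 5 = at least 90%; 4 = 70 to 90%; 3 = 50 to 70%; 2 = 30 to 50%; 1 = 10 to 30%; 0 = under 10%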; conditions: 21st day after application
Method: as §4, §6

[18] = test system: common lambsquarters (Ch); test: as above; set-up: scale not given here; conditions: 21st day after application
Method: as §4, §6

green foxtail (Se) [19] = test: as above; set-up: scale not given here; conditions: 21st day after application
Method: as §4, §6

pale smartweed (Po) [20] = test: as above; set-up: scale not given here; conditions: 21st day after application
Method: as §4, §6

slender amaranth (Am) [21] = test: as above; set-up: scale not given here; conditions: 21st day after application
Method: as §4, §6

soybean (Gl) = test: Test Example 6: crop plant selectivity by upland field soil treatment (soybean), phytotoxicity; set-up: scale not given here; conditions: dose 6.3 g ai/10a, 21st day after application
Method: as §4
(§7) In a plastic pot (surface area: 600 cm^2) filled with sand, soybean (Gl), Diaitaria ciliaris (Di), green foxtail (Se), Johnsongrass (So), pale smartweed (Po), slender amaranth (Am), common lambsquarters (Ch) and China jute (Ab) were sown and covered with soil. […] The plants were then cultured in a green house, and the evaluation of the herbicidal effects and phytotoxicity was conducted on the 21st day after the application in accordance with the standards as identified in Table 47. Symbol—represents “not tested”.

China jute (Ab) [22] = test: Test Example 6: crop plant selectivity by upland field soil treatment (soybean), herbicidal effects; set-up: scale not given here; conditions: dose 6.3 g ai/10a, 21st day after application
Method: as §4, §7

[23] = test system: common lambsquarters (Ch); test: as above; set-up: scale not given here; conditions: dose 6.3 g ai/10a, 21st day after application
Method: as §4, §7

green foxtail (Se) [24] = test: as above; set-up: scale not given here; conditions: dose 6.3 g ai/10a, 21st day after application
Method: as §4, §7

pale smartweed (Po) [25] = test: as above; set-up: scale not given here; conditions: dose 6.3 g ai/10a, 21st day after application
Method: as §4, §7

slender amaranth (Am) [26] = test: as above; set-up: scale not given here; conditions: dose 6.3 g ai/10a, 21st day after application
Method: as §4, §7

[27] = 21st day after the application, index 0-5 of Table 47
[28] = 100 g of the active ingredient per 10 ares, evaluated on the 14th day after treatment
[29] = evaluated on the 21st day after application
[30] = 100 g active ingredient per 10 ares, evaluated 14th day after treatment

Q: `Cn1c(C(F)(F)F)ccc(-c2cc(Oc3ncccn3)c(Cl)cc2F)c1=O` [Compound No. 1-27] was tested. Which “Herbicidal effects Ec” value (barnyardgrass (Ec) [1]) did it give?
A: 5

Q: And the “Herbicidal effects Sc” value (bulrush (Sc))?
A: 5

Q: What about the “Herbicidal effects Mo” value (monochoria (Mo)) of the same compound?
A: 5

Q: And the “Herbicidal effects Di” value (Digitaria ciliaris (Di); [27])?
A: 5

Q: What about the “Herbicidal effects Ec” value (barnyardgrass (Ec) [2]; [27]) of the same compound?
A: 5

Q: What about the “Herbicidal effects Ch” value [3, 27] of the same compound?
A: 5

Q: And the “Herbicidal effects Po” value (pale smartweed (Po) [4]; [27])?
A: 5

Q: What about the “Herbicidal effects Ci” value (rice flatsedge (Ci) [5]; [27]) of the same compound?
A: 5

Q: What about the “Herbicidal effects Am” value (slender amaranth (Am) [6]; [27]) of the same compound?
A: 5

Q: What about the “Herbicidal effects Di” value (Diaitaria ciliaris (Di); [28]) of the same compound?
A: 5

Q: And the “Herbicidal effects Ec” value (barnyardgrass (Ec) [7]; [28])?
A: 5

Q: What about the “Herbicidal effects Ch” value [8, 28] of the same compound?
A: 5

Q: And the “Herbicidal effects Po” value (pale smartweed (Po) [9]; [28])?
A: 5

Q: And the “Herbicidal effects Ci” value (rice flatsedge (Ci) [10]; [28])?
A: 5

Q: And the “Herbicidal effects Am” value (slender amaranth (Am) [11]; [28])?
A: 5

Q: And the “Phytotoxicity Go” value (cotton (Go); dose 1.6 g ai/10 a)?
A: 1

Q: And the “Phytotoxicity Go” value (cotton (Go); dose 6.3 g ai/10 a)?
A: 1

Q: And the “Herbicidal effects Ab” value (China jute (Ab) [12]; dose 1.6 g ai/10 a)?
A: 5

Q: What about the “Herbicidal effects Ab” value (China jute (Ab) [12]; dose 6.3 g ai/10 a) of the same compound?
A: 5

Q: What about the “Herbicidal effects Ch” value ([13]; dose 1.6 g ai/10 a) of the same compound?
A: 5

Q: What about the “Herbicidal effects Ch” value ([13]; dose 6.3 g ai/10 a) of the same compound?
A: 5

Q: What about the “Herbicidal effects Se” value (green foxtail (Se) [14]; dose 1.6 g ai/10 a) of the same compound?
A: 5

Q: What about the “Herbicidal effects Se” value (green foxtail (Se) [14]; dose 6.3 g ai/10 a) of the same compound?
A: 5

Q: What about the “Herbicidal effects Po” value (pale smartweed (Po) [15]; dose 1.6 g ai/10 a) of the same compound?
A: 5

Q: And the “Herbicidal effects Po” value (pale smartweed (Po) [15]; dose 6.3 g ai/10 a)?
A: 5

Q: What about the “Herbicidal effects Am” value (slender amaranth (Am) [16]; dose 1.6 g ai/10 a) of the same compound?
A: 5

Q: What about the “Herbicidal effects Am” value (slender amaranth (Am) [16]; dose 6.3 g ai/10 a) of the same compound?
A: 5

Q: What about the “Phytotoxicity Tr” value (wheat (Tr); dose 1.6 g ai/10a) of the same compound?
A: 1

Q: And the “Herbicidal effects Ab” value (China jute (Ab) [17]; dose 1.6 g ai/10a)?
A: 5

Q: What about the “Herbicidal effects Ch” value ([18]; dose 1.6 g ai/10a) of the same compound?
A: 5

Q: And the “Herbicidal effects Se” value (green foxtail (Se) [19]; dose 1.6 g ai/10a)?
A: 5

Q: And the “Herbicidal effects Po” value (pale smartweed (Po) [20]; dose 1.6 g ai/10a)?
A: 5

Q: And the “Herbicidal effects Am” value (slender amaranth (Am) [21]; dose 1.6 g ai/10a)?
A: 5

Q: Which results are given for `C#CCN1C(=O)C(C)Oc2cc(Cl)c(-c3ccc(C(F)(F)F)n(C)c3=O)cc21` (stereo not drawn) [Compound No. 2′-1, 3-[7-chloro-2,3-dihyro-2-methyl-4-(2-propynyl)-1,4-benzoxazin-3-on-6-yl]-6-trifluoromethyl-1-methyl-2(1H)-pyridone]?
A: Herbicidal effects Ec (barnyardgrass (Ec) [1]): 5; Herbicidal effects Sc (bulrush (Sc)): 5; Herbicidal effects Mo (monochoria (Mo)): 5; Herbicidal effects Di (Digitaria ciliaris (Di); [29]): 5; Herbicidal effects Ec (barnyardgrass (Ec) [2]; [29]): 5; Herbicidal effects Ch [3, 29]: 5; Herbicidal effects Po (pale smartweed (Po) [4]; [29]): 5; Herbicidal effects Ci (rice flatsedge (Ci) [5]; [29]): 5; Herbicidal effects Am (slender amaranth (Am) [6]; [29]): 5; Herbicidal effects Di (Diaitaria ciliaris (Di); [30]): 5; Herbicidal effects Ec (barnyardgrass (Ec) [7]; [30]): 5; Herbicidal effects Ch [8, 30]: 5; Herbicidal effects Po (pale smartweed (Po) [9]; [30]): 5; Herbicidal effects Ci (rice flatsedge (Ci) [10]; [30]): 5; Herbicidal effects Am (slender amaranth (Am) [11]; [30]): 5; Phytotoxicity Go (cotton (Go); dose 6.3 g ai/10 a): 1; Herbicidal effects Ab (China jute (Ab) [12]; dose 6.3 g ai/10 a): 5; Herbicidal effects Ch ([13]; dose 6.3 g ai/10 a): 5; Herbicidal effects Se (green foxtail (Se) [14]; dose 6.3 g ai/10 a): 5; Herbicidal effects Po (pale smartweed (Po) [15]; dose 6.3 g ai/10 a): 5; Herbicidal effects Am (slender amaranth (Am) [16]; dose 6.3 g ai/10 a): 5; Phytotoxicity Tr (wheat (Tr); dose 6.3 g ai/10a): 2; Herbicidal effects Ab (China jute (Ab) [17]; dose 6.3 g ai/10a): 5; Herbicidal effects Ch ([18]; dose 6.3 g ai/10a): 5; Herbicidal effects Se (green foxtail (Se) [19]; dose 6.3 g ai/10a): 5; Herbicidal effects Po (pale smartweed (Po) [20]; dose 6.3 g ai/10a): 5; Herbicidal effects Am (slender amaranth (Am) [21]; dose 6.3 g ai/10a): 5; Phytotoxicity Gl (soybean (Gl)): 1; Herbicidal effects Ab (China jute (Ab) [22]): 5; Herbicidal effects Ch [23]: 5; Herbicidal effects Se (green foxtail (Se) [24]): 5; Herbicidal effects Po (pale smartweed (Po) [25]): 5; Herbicidal effects Am (slender amaranth (Am) [26]): 5
